According to patent US6395723B2, “Method of providing coginition enhancement with 5α-pregnan-3β-ol-20-one sulfate” (Wyeth, priority 1997, dated 2002):
Structures can show the parent of a compound that is named as a salt.

Columns and labels:
Type in all cases: cell-based
progesterone receptors = target: T1, progesterone receptors (Homo sapiens, UniProt P06401); assay: Stimulation of alkaline phosphatase enzyme activity in T47D cells (progestational activity); conditions: for concentrations required for activity (alkaline phosphatase induction): T47D cells, reference progestins
T1 construct: endogenous in cells; host or cells: T47D human breast cancer cells
T1 sequence (P06401 1-933): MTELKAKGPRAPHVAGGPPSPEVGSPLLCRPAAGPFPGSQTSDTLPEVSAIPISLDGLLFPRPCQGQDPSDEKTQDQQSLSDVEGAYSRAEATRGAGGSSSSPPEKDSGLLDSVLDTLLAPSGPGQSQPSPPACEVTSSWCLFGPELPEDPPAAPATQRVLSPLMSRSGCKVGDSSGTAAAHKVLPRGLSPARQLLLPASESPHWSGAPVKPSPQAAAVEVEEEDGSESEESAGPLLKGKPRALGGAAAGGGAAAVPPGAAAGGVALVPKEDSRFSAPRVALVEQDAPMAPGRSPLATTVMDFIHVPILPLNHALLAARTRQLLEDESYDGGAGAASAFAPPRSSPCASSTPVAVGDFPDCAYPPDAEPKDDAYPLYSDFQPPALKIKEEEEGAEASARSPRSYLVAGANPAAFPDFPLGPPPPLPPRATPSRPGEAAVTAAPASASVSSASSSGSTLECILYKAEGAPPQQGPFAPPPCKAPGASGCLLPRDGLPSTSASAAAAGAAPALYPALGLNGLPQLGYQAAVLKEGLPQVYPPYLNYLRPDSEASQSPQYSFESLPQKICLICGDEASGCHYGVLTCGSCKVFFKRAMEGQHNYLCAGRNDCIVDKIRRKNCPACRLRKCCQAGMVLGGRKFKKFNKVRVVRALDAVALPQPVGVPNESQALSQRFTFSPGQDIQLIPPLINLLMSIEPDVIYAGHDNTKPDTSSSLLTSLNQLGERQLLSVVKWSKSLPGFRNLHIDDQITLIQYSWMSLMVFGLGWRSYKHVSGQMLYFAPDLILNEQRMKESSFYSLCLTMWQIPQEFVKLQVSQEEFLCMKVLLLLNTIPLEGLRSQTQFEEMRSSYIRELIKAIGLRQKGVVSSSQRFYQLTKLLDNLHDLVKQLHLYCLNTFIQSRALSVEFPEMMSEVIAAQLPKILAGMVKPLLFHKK
Excerpt: In this test procedure, the progestational activity of a compound is quantified based on its stimulation of alkaline phosphatase enzyme activity in T47D cells, a human breast cancer cell line which expresses high levels of progesterone receptors. This is a well established test procedure in which both the progestin receptors and the response stimulated by activated progestin receptors are endogenous to the cells. Cells are pre-conditioned in low serum medium for one day and then treated with test compounds.

[1] = tested on: potassium channel currents; assay: Whole cell recording of potassium currents from cultured hippocampal neurons; conditions: 2 μM, p=0.0006
Procedure: (§1) The neuroprotective and cognition enhancing effects of the compounds of this invention were evaluated in an in vitro standard pharmacological test procedure which measured the effects of 5α-pregnan-3β-ol-20-one 3-sulfate ester sodium salt, as a representative compound of this invention, on calcium and potassium channel currents. Briefly, the following procedure was used.
(§2) Whole cell recording techniques were used to record calcium and potassium currents from cultured hippocampal neurons. The compounds to be evaluated were made fresh each day in a 400 μM ethanol stock solution. The test compounds were diluted in saline to obtain a final concentration of 2 μM. The amplitude of calcium or potassium currents in control, test compound, and washout solutions was measured from at least 10 current traces for each condition. To compensate for rundown of the calcium current with time, control and washout currents were averaged. The current amplitude with drug was divided by the averaged control and washout current to determine the percent change. The means, standard deviations and errors for each test compound were calculated and significance from control was determined using the paired T-Test.

calcium channel currents = assay: Whole cell recording of calcium currents from cultured hippocampal neurons; conditions: 2 μM, p=0.044
Procedure: as §1, §2

SMILES: CC(=O)[C@H]1CC[C@H]2[C@@H]3CCC4=CC(=O)CC[C@]4(C)[C@H]3CC[C@]12C [progesterone]
- concentrations required for activity (alkaline phosphatase induction) (progesterone receptors): low nanomolar

SMILES: CC(=O)O[C@]1(C(C)=O)CC[C@H]2[C@@H]3C[C@H](C)C4=CC(=O)CC[C@]4(C)[C@H]3CC[C@@]21C [medroxyprogesterone acetate]
- concentrations required for activity (alkaline phosphatase induction) (progesterone receptors): low nanomolar

SMILES: CC(O)C1CCC2C3CCC4CC(O)CCC4(C)C3CCC12C (stereo not drawn) [5α-Pregnan-3β,20β-diol]
- increase of potassium channel currents versus control [1]: 21.76±2.40%

SMILES: CC(=O)[C@H]1CC[C@H]2[C@@H]3CC[C@H]4C[C@@H](OS(=O)(=O)O)CC[C@]4(C)[C@H]3CC[C@]12C [5α-pregnan-3β-ol-20-one 3-sulfate ester sodium salt]
- IC50 (progesterone receptors): 5 µM
- decrease of calcium channel currents versus control (calcium channel currents): 4.64±1.64%
